# Measured values: patent US9107954B2, “Bivalent ligands for the treatment of neurological disorders” (Virginia Commonwealth University, priority 2012, dated 2015)
# What was measured:
# CCR5 [1] = biological target: T1, CCR5 (Homo sapiens (Human), UniProt P51681); test: Calcium mobilization assay in MOLT-4/CCR5 cells, RANTES-stimulated (Example 1); type: cell-based; conditions: CCR5/MOLT-4 cells
# Procedure: The ligands were first tested with various doses (in the range of 0.1 nM to 1 μM) for possible agonist activity. The protocol was the same for the following antagonism study, except no CCL5 (RANTES) was added. MOLT-4/CCR5 cells were plated in black 96-well plates with transparent bottom (Greinier Bio-one) at 100,000 cells per well in 50:1 HBSS:HEPES assay buffer. They were incubated for 1 hour at 37° C. and 5% CO2 with control buffer or varying concentration of ligand for a total volume of 130 μL per well. Cells were then incubated with 50 μL of Fluo-4-AM loading buffer (40 μL 2 μM Fluo-4 dye, 100 μL 2.5 mM probenacid, in 5 mL assay buffer) for an additional hour. Then 20μL 200 nM RANTES solution in assay buffer or assay buffer alone were added to the wells right before changes in Ca^2+ concentration were monitored by RFU for 90 seconds using a microplate reader (FlexStation3, Molecular Devices). Peak values were obtained using SoftMaxPro software (Molecular Devices) and non-linear regression curves were generated using Prism (GraphPad) to calculate IC50 values.
# mu opioid receptor = mu opioid receptor (Homo sapiens (Human), UniProt P35372); test: biochemical; conditions: read-out: Emax, 35S-GTP[γS] binding
# Procedure: (§1) MOR/CHO cell culture and membrane homogenate preparation followed literature report^52.
# (§2) For competition binding assay (agonists or antagonists), Hill plots linear regression analysis and the Cheng-Prusoff equation were applied to determine the IC50 and Ki values. In [^35S]GTPγS binding assays, agonist concentration effect curves were fit by non-linear regression to obtain Emax and EC50 values; antagonist inhibition of agonist-stimulated [^35S]GTPγS binding was analyzed by Hill analysis and AD50 values were corrected to Ki values using the Cheng-Prusoff equation. All analyses were using Prism 4.0.
# mu opioid receptor (MOR) = mu opioid receptor (MOR) (Homo sapiens (Human), UniProt P35372); test: MOR competitive radioligand binding, [3H]naloxone, hMOR-expressed CHO cells; conditions: Example 1, read-out: binding affinity to the mu opioid receptor, Ki
# Procedure: as §1
# Saturation binding was performed by incubating membranes for 90 minutes at 30° C. with 0.5-15 nM [^3H]naloxone in assay buffer in a 0.5 mL volume. […] The reaction was terminated by rapid filtration through Whatman GF/B glass fiber filters, followed by 3 washes with 3 mL ice-cold Tris buffer. Bound radioactivity will be determined by liquid scintillation spectrophotometry at 45% efficiency for [^3H].
# as §2
# Herein is reported the characterization of this novel molecular probe in for its binding affinity, Ca^2+ flux functional activity, and HIV-1 inhibition potency.
# [2] = test system: R5-tropic HIV-1Bal Vpr-GFP in primary astroglial cells; test: Confocal microscopy of HIV-1Bal Vpr-GFP entry into astroglial cells; type: cell-based; conditions: 100 nM, 18 to 20 h
# Procedure: For direct visualization of viral entry, fluorescent HIV-1 particles were generated by co-transfection of a vector containing a full-length R5-tropic HIV-1 provirus (NIH AIDS Research & Reference Reagent Program, Division of AIDS, NIAID, NIH: pWT/BaL (catalog #11414) and Vpr-GFP into HEK-293T cells as described in [9]. Primary astroglial cells were infected with the HIV-1 Vpr-GFP particles in the absence or presence of 100 nM bivalent ligand for 18 to 20 h at 37° C., washed in PBS, fixed with 4% paraformaldehyde, and counterstained with DAPI. Cells were imaged using a Zeiss LSM 700 laser scanning confocal microscope equipped with a 63×(1.42 numerical aperture [NA]) objective, using 488-nm laser excitation with dichroic beam-splitter set at 492 nm to optimize GFP detection.
# CCR5 and MOR = test: Flow cytometry of CCR5 and MOR co-localization in HIV-1 infected primary human astrocytes; type: cell-based
# Procedure: MOR and CCR5 immunoreactivity were detected by direct immunofluorescence in astroglial cells by flow cytometric analysis. Cells were washed in phosphate-buffered saline (PBS)-0.1% bovine serum albumin (BSA) buffer and incubated with primary MOR antibody followed by a secondary antibody conjugated to allophycocyanin (APC) (Biolegend, Inc; catalog #408001) and Alexa Fluor® 488 conjugated anti-mouse CD195 (CCR5) antibody (Biolegend, Inc; catalog #107008) in permeabilization buffer (PBS-0.1% BSA-0.1% Triton X-100) at a 1:500 dilution. Fluorescence was measured from 10,000 gated cells per treatment in each experiment using a FACSCanto II flow cytometer (BD Biosciences, San Jose, Calif.). Auto-fluorescence was compensated by setting the detector voltage to the minimum level that discriminates between auto-fluorescence and specific immunofluorescence in both negative and positive controls. Isotype control antibodies were used to define settings in histogram plot analyses.
# We quantitatively analyzed the effect of MVC and the bivalent compound on CCR5 and MOR expression levels in virally infected astrocytes by flow cytometry. […] Approximately 20,000 events were analyzed per treatment condition in each experiment and size discrimination was used as a crude method for viability determination.
# IL-6 = test: Cytokine release ELISA, HIV-1 infected astroglia supernatant: IL-6; type: cell-based, human; conditions: 18-20 h; bivalent ligand ± morphine
# Procedure: (§3) The protein levels of the cytokines TNF-α, IL-6, IL-1β and the chemokine RANTES were measured by ELISA (Quantikine kits; R&D Systems Minneapolis, Minn.).
# (§4) After 18-20 h exposure, supernatant was removed and analyzed by ELISA to quantitatively analyze the release of the cytokines TNF-α, IL-1β and IL-6 and the chemokine RANTES.
# RANTES = test: Chemokine release ELISA, HIV-1 infected astroglia supernatant: RANTES; type: cell-based, human; conditions: 18-20 h; bivalent ligand ± morphine
# Procedure: as §3, §4
# HIV-1 in microglia = test: HIV-1 entry in microglia (data not shown); type: cell-based; conditions: at the concentrations used (100 nM)
# CCR5 [3] = biological target: T1, CCR5; test: Calcium mobilization assay, CCR5-MOR CHO co-expressed cell line (Gqi5), RANTES-stimulated; type: cell-based; conditions: cells stimulated with RANTES
# Procedure: Having a cell line that consistently expresses both CCR5 and MOR was essential for studying how the two receptors interact with each other using calcium mobilization assays and cell fusion assays. A previously established MOR Chinese hamster ovarian (CHO) cell line was transfected with a plasmid containing CCR5 tagged with a yellow fluorescent protein on its N-terminus (CCR5-YFP). ^1 After 48 hours cells were sorted based upon the presence of the yellow fluorescent protein tag using a flow cytometer. Cells containing the tagged receptors were then cultured and used in the subsequent assays.
# Calcium mobilization is directly related to G protein-coupled receptor (GPCR) activation and therefore is a useful technique to study the functional activity of new ligands.
# MOR = MOR (Homo sapiens (Human), UniProt P35372); test: DAMGO-stimulated Ca2+ flux assay in hMOR-CHO cells transfected with Gqi5; type: cell-based
# CCR5 [4] = biological target: CCR5 (Macaca mulatta (Rhesus macaque), UniProt P61813); test: CCR5 competitive radioligand binding, [125I]MIP-1α, Chem-1 cell membrane preparations; conditions: mean of three experiments, read-out: Radioligand binding Ki ± SEM
# Procedure: Afterwards, the pharmacological profile of bivalent ligand 1 at the chemokine receptor CCR5 was characterized similarly. The competitive radioligand binding assay was conducted in CCR5 rhesus macaque membrane preparations from Chem-1 cells.
# T1 sequence (P51681 whole entry): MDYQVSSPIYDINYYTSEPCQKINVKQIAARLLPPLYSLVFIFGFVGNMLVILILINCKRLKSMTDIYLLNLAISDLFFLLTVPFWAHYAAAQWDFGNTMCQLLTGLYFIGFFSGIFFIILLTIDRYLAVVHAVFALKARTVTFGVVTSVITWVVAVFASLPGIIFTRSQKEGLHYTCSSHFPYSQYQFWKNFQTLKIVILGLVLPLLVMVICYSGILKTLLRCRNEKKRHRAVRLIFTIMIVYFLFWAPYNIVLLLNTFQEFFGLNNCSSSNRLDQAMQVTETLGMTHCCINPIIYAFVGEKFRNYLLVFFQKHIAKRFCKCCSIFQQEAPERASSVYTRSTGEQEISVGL
smiles,measurement,setting,value
Cc1nnc(C(C)C)n1C1CC2CCC(C1)N2CC[C@H](NC(=O)C1CCC(F)(F)CC1)c1ccc(NC(=O)COCC(=O)NCCCCCCCNC(=O)COCC(=O)N[C@@H]2CC[C@@]3(O)[C@H]4Cc5ccc(O)c6c5[C@@]3(CCN4CC3CC3)[C@H]2O6)cc1 (some centres unmarked) [bivalent ligand 1],IC50,"CCR5 [1]; RANTES, read-out: calcium flux inhibition IC50",231 ± 88 nM
same,agonism in calcium mobilization assay,CCR5 [1]; no RANTES added,no agonism
same,Emax,mu opioid receptor,11.7 ± 1.2%
same,Ki,mu opioid receptor (MOR),51.8 ± 7.9 nM
same,viral entry by confocal microscopy,[2],abolished viral entry
same,fold increase in astrocytes expressing both CCR5 and MOR compared to R5 HIV-1 alone,CCR5 and MOR,1.6 fold
same,fold decrease in IL-6 release compared to R5 HIV-1 alone,IL-6,1.6 fold
same,fold decrease in RANTES release compared to R5 HIV-1 alone,RANTES,1.5 fold
same,antiviral effect in microglia,HIV-1 in microglia,only detected in astrocytes and not in microglia
same,IC50,CCR5 [3],6240 ± 251 nM
same,fold reduction of potency to antagonize DAMGO-induced Ca2+ flux compared to naltrexone,MOR,less than 5 fold
same,IC50,"MOR; DAMGO stimulated, hMOR-CHO Gqi5, read-out: Ca2+ inhibition IC50 ± SEM",40 ± 4.8 nM
same,agonism in Ca2+ mobilization assay,"MOR; hMOR-CHO Gqi5, data not shown",No agonism
same,Ki,CCR5 [4],239 ± 56 nM
